These results are taken from PubChem BioAssay (NCI).

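96-well plates; 48 h exposure; 5 concentrations. Endpoints by linear interpolation between flanking doses. Not reached: highest tested concentration assigned. TGI: total growth inhibition.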

Common to all, as to assay: NCI-60 cell line screen, 48 h
The subject of test [1] is ACHN renal.
Test [2] has as its system OVCAR-8 ovarian.
Test [3] deals with BT-549 breast.
The subject of test [4] is CCRF-CEM leukemia.
The subject of test [5] is OVCAR-4 ovarian.
In test [6] the test system is NCI-H522 lung.
For test [7], the system named is UO-31 renal.
For test [8], the system named is SK-MEL-2 melanoma.
The test system of test [9] is SF-295 CNS.
Test [10] concerns SF-539 CNS.

For the compound `Cn1c(=O)c2[nH]c(CCCCC(=O)O)nc2n(C)c1=O`, the TGI in test [1], in [2], in test [3], in [4], in test [5] and in test [6] was more than 100 µM each time. The TGI in test [7], in test [8] and in test [9] was more than 100 µM each time.
Regarding `Cc1ccccc1N=Nc1ccc(N/N=C2/CCCNC2=O)c(C)c1`, the TGI in test [1], in test [3], in test [4], in test [5], in test [6] and in [7] was more than 100 µM throughout. Also, the TGI in [8] and in test [9] was more than 100 µM each time.
For `Cc1ccc(C)c(COCCOCn2ccc(N)nc2=O)c1`, the TGI in [1], in test [2], in test [3], in test [4], in test [10] and in test [6] was more than 100 µM each time. For the same compound, the TGI in [7], in test [8] and in test [9] was more than 100 µM each time.
Regarding `COC1(OC)CC(CO)(CNc2nc(N)nc(Cl)c2/C=N\O)C1`, the TGI in test [1], in [2], in [3], in test [4], in [10] and in [5] was more than 100 µM in each case. In addition, the TGI in test [6], in [7] and in test [9] was more than 100 µM each time.
As for `NNc1nncc2n[nH]nc12`, the TGI in [1], in [2], in test [3], in test [4], in test [10] and in test [7] was more than 100 µM throughout. Further, the TGI in test [8] and in test [9] was more than 100 µM throughout.
With `CC(C)=CC(=O)C[C@H]1C(=O)O[C@@H]2C[C@H]3C(C)=CC(=O)[C@@H](O)[C@]3(C)[C@H]3[C@@]4(O)OC[C@]32[C@@H]1[C@@H](C)[C@H]4O`, the TGI in test [1] came out at 0.834 µM; in test [2], 0.283 µM; in test [3], 0.205 µM; in test [4], 0.0918 µM; in test [5], 1.05 µM; in test [8] it was 0.274 µM. Further, the TGI in test [9] came out at 0.152 µM.
As for `O=C1C(Cl)C(c2cccc(Cl)c2)N1c1ccc(-n2c(=S)[nH]c3ccccc3c2=O)cc1` (centres undefined), the TGI in [1] was 48.8 µM; in [2], more than 100 µM; in test [3] it was more than 100 µM; in [4], 77.5 µM; in test [10] it was 54.6 µM; in [5] it was 39.6 µM. The TGI in test [6] was 31.3 µM; in test [7], 49 µM; in test [9], 41.8 µM.
Regarding `CCOC(=O)CN=C1NNS(=O)(=O)c2ccccc21`, the TGI in test [1], in [2], in test [3], in test [4], in [10] and in [5] was more than 100 µM throughout. For the same compound, the TGI in test [6], in test [7] and in [9] was more than 100 µM in each case.
On to `Cc1ccc(-c2c3nc(c(-c4ccc(C)cc4)c4ccc([nH]4)c(-c4ccc(OCC5COC(C)(C)O5)cc4)c4nc(c(-c5ccc(C)cc5)c5ccc2[nH]5)C=C4)C=C3)cc1` (centres undefined), for which the TGI in test [1] is more than 31.6 µM; in [2], more than 31.6 µM; in [3], more than 100 µM; in [10], more than 31.6 µM; in test [5], more than 31.6 µM; in test [6], more than 31.6 µM. Also, the TGI in test [7], in test [8] and in test [9] was more than 31.6 µM in each case.
Consider `NC(=S)Nc1ccc(S(=O)(=O)Nc2ccc(S(N)(=O)=O)cc2)cc1`, for which the TGI in test [1], in test [2], in [3], in test [4], in test [5] and in [6] was more than 100 µM each time. Moreover, the TGI in [7], in test [8] and in test [9] was more than 100 µM in each case.
Take `CC(=O)OCCOCn1cnc2c(Cl)nc(Cl)nc21`: the TGI came out at 30.6 µM in [1]; 44.2 µM in [2]; 36.4 µM in test [3]; 23.7 µM in test [4]; 37.5 µM in [5]; 4.07 µM in test [6]. Moreover, the results for the TGI in test [7] and in test [8] were 36.4 µM and 55.6 µM, respectively.
For `COc1cc2c(cc1OC)CCc1cc(OC)c(OC)cc1CC2`, the TGI in [1], in [2], in test [3], in test [4], in test [10] and in test [5] was more than 100 µM throughout. The TGI in test [7], in test [8] and in test [9] was more than 100 µM in each case.
For `CCN(CC)CC(=O)O[C@]1(CC)C(=O)OCc2c1cc1n(c2=O)Cc2cc3ccccc3nc2-1`, the TGI in test [1] is 0.146 µM; in [2], 3.65 µM; in test [3] it was 1.93 µM; in [10], 0.17 µM; in test [5] it was 0.62 µM; in test [6] it was 1.44 µM. The TGI in test [7] was 0.182 µM; in [8], 1.42 µM; in [9] it was 1.08 µM.
For the compound `O=c1oc2cc(O)ccc2c(O)c1C(c1ccccc1F)c1c(O)c2ccc(O)cc2oc1=O`, the TGI is more than 100 µM in [1]; more than 100 µM in test [2]; 48.4 µM in test [3]; more than 100 µM in test [10]; more than 100 µM in test [6]; more than 100 µM in [7]. Besides, the TGI in test [8] and in [9] was more than 100 µM in each case.
For the compound `c1ccc2c(c1)nc1n2CNC1`, the TGI in [1], in test [3], in test [4], in test [10], in test [5] and in [7] was more than 100 µM in each case. Moreover, the TGI in test [8] and in test [9] was more than 100 µM throughout.
As for `O=C1C=CC=C/C1=C1\N=C(c2ccccc2OCC(=O)c2ccc(Br)cc2)SS1`, the TGI is more than 100 µM in test [1]; more than 100 µM in test [2]; 62.9 µM in test [3]; more than 100 µM in [4]; more than 100 µM in test [10]; more than 100 µM in [5]. Moreover, the TGI in test [7], in test [8] and in test [9] was more than 100 µM in each case.
`Cc1ccc(N=Nc2c(C)c(C#N)c(=S)n(C3OC(CO)C(O)C(O)C3O)c2C)cc1` (centres undefined): the TGI in test [1] is more than 100 µM; in [3], 54.4 µM; in [4], more than 100 µM; in test [10], more than 100 µM; in test [5], more than 100 µM; in test [7], 98.8 µM. The TGI in test [8] is 89.7 µM; in test [9] it was more than 100 µM.
As to `CC(=O)N[C@@H](Cc1ccc(O)cn1)C(=O)NCc1cccc(Cl)c1`, the TGI in test [1], in test [3], in [4], in test [10], in test [5] and in test [6] was more than 100 µM in each case. Besides, the TGI in test [7], in test [8] and in test [9] was more than 100 µM in each case.
`C=C(CC[C@@H](C)[C@H]1CC[C@@]2(C)C3=C(CC[C@]12C)[C@@]1(C)CC[C@H](O)[C@@H](C)C1CC3)C(C)C` (some centres undefined): the TGI in [1] came to 2.55 µM; in test [2] it was 3.53 µM; in test [3], 3.13 µM; in [4] it was 2.22 µM; in test [10], 2.71 µM; in test [5] it was 3.3 µM. For the same compound, the TGI in test [7] came to 2.35 µM; in test [8] it was 2.93 µM; in test [9], 2.27 µM.
Take `CC(C)Oc1ccc2c(c1)OCC1Cc3ccccc3OC21` (centres undefined): the TGI in test [2], in [3], in [4], in [10], in test [6] and in test [7] was more than 100 µM each time. The TGI in [8] and in [9] was more than 100 µM in each case.
As for `O=C(O)[C@@H]1CSCN1C(=O)[C@@H]1CCC(=S)N1`, the TGI in test [1], in test [2], in [3], in test [4], in [10] and in test [6] was more than 100 µM each time. Also, the TGI in test [7], in [8] and in [9] was more than 100 µM in each case.
As to `Cc1ccc(NC(=S)N/N=C(/c2ccccc2)c2ccccn2)cc1`, the TGI stood at 10.3 µM in test [1]; 14 µM in test [2]; 19.1 µM in test [3]; 10.3 µM in test [10]; 16.6 µM in test [5]; 24.4 µM in test [6]. The TGI in [7] was 7.68 µM; in test [8], 15.1 µM; in test [9], 12.7 µM.
